From patent publication US8975370B2, “Inhibitor proteins of a protease and use thereof” (Universite de Lausanne, priority 2003, dated 2015)
*1 amine or outer side, *2 acyl side, *3 side chain or, on linkers, in order; H or OH if unused. Where a SMILES comes first, the peptide text is derived from it. The star is where a group is joined. AMC = Cc1cc(=O)oc2cc(N*)ccc12; Suc = O=C(CCC(=O)[*:2])[*:1]; MeOSuc = COC(=O)CCC(=O)*

Key:
[1] = biological target: T1, human neutrophil elastase (HNE) (Homo sapiens, UniProt P08246); assay: Km of HNE for its fluorogenic substrate (used for ka correction, eq 2); assay type: biochemical; settings: substrate MeOSuc-AAPV-AMC, kinetics in 50 mM Tris pH 7.5, 150 mM NaCl, 0.05% Triton X-100, 0.01% BSA, 25° C.
T1 construct: substrate MeOSuc-AAPV-AMC
T1 sequence (P08246 30-267): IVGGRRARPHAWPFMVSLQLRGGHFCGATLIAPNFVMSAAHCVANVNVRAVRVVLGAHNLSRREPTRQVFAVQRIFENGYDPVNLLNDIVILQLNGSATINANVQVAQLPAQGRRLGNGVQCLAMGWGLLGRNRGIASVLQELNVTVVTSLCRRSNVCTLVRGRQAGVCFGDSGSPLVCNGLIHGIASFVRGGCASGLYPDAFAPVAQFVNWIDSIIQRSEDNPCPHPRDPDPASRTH
Excerpt: (§1) hK2 and hK3 (PSA) were purified from human semen as previously described (Frenette G, Gervais Y, Tremblay R R, Dube J Y. 1998 “Contamination of purified prostate-specific antigen preparations by kallikrein hK2” J Urol 159, 1375-8), anti-hK2 and anti-PSA monoclonal antibodies were a gift from Professor R R Tremblay, Laval University, Canada. Human chymotrypsin (Chtr), urokinase plasminogen activator (uPA), human kallikrein hK1, human plasma kallikrein (PK), human neutrophil elastase (HNE) and commercial ACT (human plasma α1-antichymotrypsin) were purchased from Calbiochem. […]
(§2) The association rate constants for interactions of hK2, chymotrypsin, PK and HNE with different rACTs were determined under pseudo-first order conditions using the progress curve method (Morrison J F, Walsh C T. 1988 “The behavior and significance of slow-binding enzyme inhibitors” Adv. Enzymol. Relat. Areas Mol. Biol 61, 201-301). […] Each reaction was made in reaction buffer (50 mM Tris pH 7.5, 150 mM NaCl, 0.05% Triton X-100, 0.01% BSA) at 25° C. for 45 min and the rate of product formation was measured using a FLx800 fluorescence 96-well microplate reader (Biotek, USA). […]
(§3) For each inhibitor, a kobs was calculated, for four different concentrations of inhibitors, by non linear regression of the data using equation 1. […]

[2] = tested on: human chymotrypsin (Chtr); assay: Km of chymotrypsin for its fluorogenic substrate (used for ka correction, eq 2); assay type: biochemical; settings: substrate Suc-AAPF-AMC, kinetics in 50 mM Tris pH 7.5, 150 mM NaCl, 0.05% Triton X-100, 0.01% BSA, 25° C.
Excerpt: as §1, §2, §3

Structure (SMILES)	Km [1]	Km [2]
COC(=O)CCC(=O)N[C@@H](C)C(=O)N[C@@H](C)C(=O)N1CCC[C@H]1C(=O)N[C@H](C(=O)Nc1ccc2c(C)cc(=O)oc2c1)C(C)C [MeOSuc-AAPV-AMC, MeOSuc-Ala-Ala-Pro-Val-AMC] (MeOSuc-AAPV-{AMC})	130 µM	
Cc1cc(=O)oc2cc(NC(=O)[C@H](Cc3ccccc3)NC(=O)[C@@H]3CCCN3C(=O)[C@H](C)NC(=O)[C@H](C)NC(=O)CCC(=O)O)ccc12 [Suc-AAPF-AMC, Suc-Ala-Ala-Pro-Phe-AMC] (Suc-AAPF-{AMC})		145 µM
